Among the test systems are M19-MEL melanoma; XF 498 CNS; NCI/ADR-RES ovarian; MDA-MB-231 breast; M14 melanoma; CAKI-1 renal; SR leukemia; ACHN renal.
Experiment in all cases: inhibition of tumour cell growth, NCI panel, 48 h

SMILES strings stand for the structures.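 Protocol summary: plate cells (96-well), add compound at 5 concentrations, incubate 48 h, interpolate endpoints linearly. The concentration for full growth arrest is given as TGI.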

This passage reports TGI results from PubChem BioAssay (NCI).

For `O=C(NCCCCCCNC(=O)n1cc(F)c(=O)[nH]c1=O)NCCCOCCOCCCNC(=O)C(O)C(O)C(O)C(O)CO` (stereo not drawn), the TGI in the test on M19-MEL melanoma, with XF 498 CNS and with NCI/ADR-RES ovarian was over 2.5 µM throughout.

For the compound `CCOC(=O)c1sc2nc(SC)nc3c2c1NC(=O)CN3c1cccc(F)c1`, the TGI in the test on MDA-MB-231 breast was 41.3 µM; in the test on M14 melanoma, 50 µM; in the test on CAKI-1 renal it was over 100 µM; in the test with SR leukemia, over 100 µM; in the test with ACHN renal it was 27.3 µM.
